Reference: PubChem BioAssay AID248 (DTP/NCI, 2004)
Values joined by “and” are separate entries in the source; they are usually repeats but may differ in a detail not shown here. Identical values can stand only once. Inconclusive results and toxic doses are left out. Rule as the data show it: active = T/C of 150% or more; inactive = T/C below 125%.

Test system: L1210 leukemia ip in BDF1 mice, survival T/C
Assay: NCI In Vivo Anticancer Drug Screen. Data for tumor model L1210 Leukemia (intraperitoneal) in B6D2F1 (BDF1) mice
Conditions: endpoint: mean survival time, higher = longer survival
In short: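 Tumor cells were implanted, animals were treated, and survival was followed. The result divides the treated measurement by the vehicle-control measurement.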

[1] = dose: 50.0 mg/kg/injection, schedule: Q01DX001 (ip), vehicle: saline
[2] = dose: 50.0 mg/kg/injection, schedule: Q01DX009 (ip), vehicle: saline
[3] = dose: 100.0 mg/kg/injection, schedule: Q01DX009 (ip), vehicle: saline
[4] = dose: 12.5 mg/kg/injection, schedule: Q01DX009 (ip), vehicle: saline with Tween-80
[5] = dose: 12.5 mg/kg/injection, schedule: Q04DX003 (ip), vehicle: saline with Tween-80
[6] = dose: 25.0 mg/kg/injection, schedule: Q01DX009 (ip), vehicle: saline with Tween-80
[7] = dose: 25.0 mg/kg/injection, schedule: Q04DX003 (ip), vehicle: saline with Tween-80
[8] = dose: 25.0 mg/kg/injection, schedule: Q04DX003 (ip), vehicle: saline
[9] = dose: 50.0 mg/kg/injection, schedule: Q04DX003 (ip), vehicle: saline with Tween-80
[10] = dose: 75.0 mg/kg/injection, schedule: Q01DX001 (ip), vehicle: other
[11] = dose: 100.0 mg/kg/injection, schedule: Q04DX003 (ip), vehicle: Klucel (hydroxypropylcellulose) (HPC)
[12] = dose: 200.0 mg/kg/injection, schedule: Q04DX003 (ip), vehicle: Klucel (hydroxypropylcellulose) (HPC)
[13] = dose: 400.0 mg/kg/injection, schedule: Q04DX003 (ip), vehicle: Klucel (hydroxypropylcellulose) (HPC)
[14] = dose: 100.0 mg/kg/injection, schedule: Q01DX009 (ip), vehicle: saline with Tween-80
[15] = dose: 200.0 mg/kg/injection, schedule: Q01DX009 (ip), vehicle: saline with Tween-80
[16] = dose: 400.0 mg/kg/injection, schedule: Q01DX009 (ip), vehicle: saline with Tween-80
[17] = dose: 100.0 mg/kg/injection, schedule: Q01DX001 (ip), vehicle: carboxymethylcellulose (CMC)
[18] = dose: 200.0 mg/kg/injection, schedule: Q01DX001 (ip), vehicle: carboxymethylcellulose (CMC)

Measured: T/C

CN(C)CCC(=O)c1ccc(Cl)cc1
inactive: [1] 101 % of control | [2] 95 % of control and 117 % of control | dose: 100.0 mg/kg/injection, schedule: Q01DX001 (ip), vehicle: saline 101 % of control | [3] 99 % of control and 103 % of control | dose: 100.0 mg/kg/injection, schedule: Q04DX002 (ip), vehicle: saline 95 % of control and 103 % of control | dose: 200.0 mg/kg/injection, schedule: Q01DX001 (ip), vehicle: saline 101 % of control | dose: 200.0 mg/kg/injection, schedule: Q04DX002 (ip), vehicle: saline 93 % of control and 90 % of control

CCN(CCO)c1ccc(N=O)cc1
inactive: dose: 5.0 mg/kg/injection, schedule: Q01DX001 (ip), vehicle: saline 95 % of control | dose: 10.0 mg/kg/injection, schedule: Q01DX001 (ip), vehicle: saline 101 % of control | [1] 90 % of control

CC(C)CC(CC(C)C)NCC(C)OC(=O)c1ccc(N)cc1 (centres undefined)
inactive: [4] 96 % of control and 104 % of control | [5] 92 % of control | [6] 102 % of control and 105 % of control | dose: 25.0 mg/kg/injection, schedule: Q01DX009 (ip), vehicle: saline 98 % of control | [7] 104 % of control | [8] 100 % of control | dose: 50.0 mg/kg/injection, schedule: Q01DX009 (ip), vehicle: saline with Tween-80 96 % of control and 106 % of control | [2] 100 % of control | [9] 93 % of control | dose: 50.0 mg/kg/injection, schedule: Q04DX003 (ip), vehicle: saline 96 % of control | [10] 92 % of control | [3] 88 % of control | dose: 100.0 mg/kg/injection, schedule: Q04DX003 (ip), vehicle: saline 102 % of control and 91 % of control

Nc1nc(N)nc(-c2ccccc2N=NN2CCCCC2)n1
inactive: [11] 101 % of control | [12] 94 % of control | [13] 95 % of control

CCOC(=O)c1ccc(NC(=S)NC(=O)c2ccco2)cc1
inactive: [14] 98 % of control | [11] 102 % of control | [15] 98 % of control | [12] 98 % of control | [16] 98 % of control | [13] 96 % of control

O=C1C(Br)=C(C2CCCCC2)C(=O)c2ccccc21
inactive: dose: 50.0 mg/kg/injection, schedule: Q01DX001 (ip), vehicle: carboxymethylcellulose (CMC) 97 % of control | [17] 116 % of control | [18] 103 % of control

Cc1cc(C)n(C(N)=O)n1
inactive: dose: 100.0 mg/kg/injection, schedule: Q01DX009 (ip), vehicle: Klucel (hydroxypropylcellulose) (HPC) 109 % of control | [11] 105 % of control and 104 % of control | dose: 200.0 mg/kg/injection, schedule: Q01DX009 (ip), vehicle: Klucel (hydroxypropylcellulose) (HPC) 104 % of control | [12] 97 % of control and 102 % of control | dose: 400.0 mg/kg/injection, schedule: Q01DX009 (ip), vehicle: Klucel (hydroxypropylcellulose) (HPC) 110 % of control | [13] 101 % of control and 104 % of control

Cn1c(=O)c2c(nc(C3CC4C5CCC(C5)C4C3)n2C)n(C)c1=O (centres undefined)
inactive: [17] 103 % of control | [18] 95 % of control | dose: 400.0 mg/kg/injection, schedule: Q01DX001 (ip), vehicle: carboxymethylcellulose (CMC) 95 % of control

CCCCCC/C=N\N=C(N)N
inactive: dose: 15.0 mg/kg/injection, schedule: Q01DX Z (ip), vehicle: saline 97 % of control | dose: 30.0 mg/kg/injection, schedule: Q01DX Z (ip), vehicle: saline 97 % of control | dose: 60.0 mg/kg/injection, schedule: Q01DX Z (ip), vehicle: saline 102 % of control | dose: 60.0 mg/kg/injection, schedule: Q01DX Z (oral), vehicle: saline 100 % of control | dose: 120.0 mg/kg/injection, schedule: Q01DX Z (ip), vehicle: saline 88 % of control | dose: 120.0 mg/kg/injection, schedule: Q01DX Z (oral), vehicle: saline 98 % of control | dose: 240.0 mg/kg/injection, schedule: Q01DX Z (oral), vehicle: saline 91 % of control | dose: 480.0 mg/kg/injection, schedule: Q01DX Z (oral), vehicle: saline 98 % of control

CC1CC(NCCO)CC(C)(C)C1 (centres undefined)
inactive: dose: 75.0 mg/kg/injection, schedule: Q01DX001 (ip), vehicle: acid diluted with saline 122 % of control | dose: 150.0 mg/kg/injection, schedule: Q01DX001 (ip), vehicle: acid diluted with saline 100 % of control

Nc1nc2ncc(CNc3nc(C(=O)NC(CCC(=O)O)C(=O)O)cs3)nc2c(=O)[nH]1 (centres undefined)
inactive: dose: 25.0 mg/kg/injection, schedule: Q01DX009 (ip), vehicle: alkali diluted with saline 97 % of control | dose: 50.0 mg/kg/injection, schedule: Q01DX009 (ip), vehicle: alkali diluted with saline 93 % of control | [10] 101 % of control | dose: 75.0 mg/kg/injection, schedule: Q01DX009 (ip), vehicle: alkali diluted with saline 103 % of control | dose: 100.0 mg/kg/injection, schedule: Q01DX009 (ip), vehicle: alkali diluted with saline 92 % of control | dose: 150.0 mg/kg/injection, schedule: Q01DX001 (ip), vehicle: other 103 % of control

Cc1ccc(Cl)cc1NC(=O)Nc1ccc(C)c(NC(=O)Nc2cc(Cl)ccc2C)c1
inactive: [14] 87 % of control | dose: 100.0 mg/kg/injection, schedule: Q04DX003 (ip), vehicle: saline with Tween-80 88 % of control | [15] 92 % of control | dose: 200.0 mg/kg/injection, schedule: Q04DX003 (ip), vehicle: saline with Tween-80 86 % of control | [16] 98 % of control | dose: 400.0 mg/kg/injection, schedule: Q04DX003 (ip), vehicle: saline with Tween-80 90 % of control

Cc1cccc2cc3c(ccc4ccccc43)c[n+]12
inactive: dose: 2.0 mg/kg/injection, schedule: Q01DX015 (ip), vehicle: carboxymethylcellulose (CMC) 101 % of control | dose: 4.0 mg/kg/injection, schedule: Q01DX015 (ip), vehicle: carboxymethylcellulose (CMC) 108 % of control | dose: 5.0 mg/kg/injection, schedule: Q04DX003 (ip), vehicle: Klucel (hydroxypropylcellulose) (HPC) 106 % of control | dose: 6.25 mg/kg/injection, schedule: Q01DX009 (ip), vehicle: saline with Tween-80 98 % of control | dose: 6.25 mg/kg/injection, schedule: Q04DX003 (ip), vehicle: saline 93 % of control | dose: 8.0 mg/kg/injection, schedule: Q01DX015 (ip), vehicle: carboxymethylcellulose (CMC) 105 % of control | dose: 10.0 mg/kg/injection, schedule: Q04DX003 (ip), vehicle: Klucel (hydroxypropylcellulose) (HPC) 103 % of control | dose: 12.5 mg/kg/injection, schedule: Q01DX001 (ip), vehicle: saline 98 % of control | [4] 115 % of control | dose: 12.5 mg/kg/injection, schedule: Q04DX003 (ip), vehicle: saline 97 % of control | dose: 20.0 mg/kg/injection, schedule: Q04DX003 (ip), vehicle: Klucel (hydroxypropylcellulose) (HPC) 100 % of control | dose: 25.0 mg/kg/injection, schedule: Q01DX001 (ip), vehicle: saline 97 % of control | [8] 97 % of control | dose: 40.0 mg/kg/injection, schedule: Q04DX003 (ip), vehicle: Klucel (hydroxypropylcellulose) (HPC) 97 % of control | dose: 80.0 mg/kg/injection, schedule: Q04DX003 (ip), vehicle: Klucel (hydroxypropylcellulose) (HPC) 100 % of control

CCCCCCCCCCCCOCCCN
inactive: [4] 98 % of control | [5] 92 % of control | [6] 90 % of control | [7] 90 % of control | [9] 92 % of control

CC1C(N)CC2CC1C2(C)C (centres undefined)
inactive: dose: 12.5 mg/kg/injection, schedule: Q04DX002 (ip), vehicle: saline 113 % of control | dose: 25.0 mg/kg/injection, schedule: Q04DX002 (ip), vehicle: saline 102 % of control | dose: 50.0 mg/kg/injection, schedule: Q04DX002 (ip), vehicle: saline 102 % of control

CCCCOC(=O)c1[nH]cnc1/N=N/N(C)CCCC
inactive: dose: 100.0 mg/kg/injection, schedule: Q01DX001 (ip), vehicle: other 112 % of control | dose: 200.0 mg/kg/injection, schedule: Q01DX001 (ip), vehicle: other 120 % of control

CC(=O)Oc1ccc2c3c(cccc13)CC2
inactive: [14] 97 % of control | [15] 96 % of control | [16] 92 % of control
